{"source": "paper PMC6219668", "about": "(Oncotarget, 2018)", "key": {"NCI-H2009": {"system": "NCI-H2009", "set-up": "method as in Brain C et al, manuscript in preparation", "conditions": "RB1-deleted lung adenocarcinoma line; up to 10 μM; ref Brain C et al, manuscript in preparation; cited from earlier work"}, "COR-L105 [1]": {"system": "COR-L105", "assay": "cells", "format": "cell-based", "conditions": "Homo sapiens, COR-L105, 72 h"}, "NCI-H1792 [2]": {"system": "NCI-H1792", "assay": "cells", "format": "cell-based", "conditions": "Homo sapiens, NCI-H1792, 72 h"}, "TE-5": {"system": "TE-5", "assay": "cells", "format": "cell-based", "conditions": "Homo sapiens, TE-5, 72 h"}, "HBCx-8": {"system": "HBCx-8", "format": "in vivo", "conditions": "HBCx-8, Breast, TNBC, Rb present; 125 mg/kg bid × 21"}, "SNU-387": {"system": "SNU-387", "assay": "cells", "format": "cell-based", "conditions": "Homo sapiens, SNU-387, 72 h"}, "HBCx-11": {"system": "HBCx-11", "format": "in vivo", "conditions": "HBCx-11, Breast, TNBC, Rb present; 125 mg/kg bid × 21"}, "NCI-H1792 [3]": {"system": "NCI-H1792", "assay": "cells", "format": "cell-based", "conditions": "Homo sapiens, NCI-H1792, 72 h", "remark": "listed apart in the source"}, "A-375": {"system": "A-375", "assay": "cells", "format": "cell-based", "conditions": "Homo sapiens, A-375, 72 h"}, "HBRX1600": {"system": "HBRX1600", "format": "in vivo", "conditions": "HBRX1600, Breast, TNBC, Rb present; 250 mg/kg qd"}, "HBCx-3": {"system": "HBCx-3", "format": "in vivo", "conditions": "HBCx-3, Breast, TNBC, Rb present; 125 mg/kg bid × 21"}, "UACC-62": {"system": "UACC-62", "assay": "cells", "format": "cell-based", "conditions": "Homo sapiens, UACC-62, 72 h"}, "HCC-827 [4]": {"system": "HCC-827", "assay": "cells", "format": "cell-based", "conditions": "Homo sapiens, HCC827; HCC-827, 72 h"}, "MGH051": {"system": "MGH051", "assay": "cells", "format": "cell-based", "conditions": "MGH051, 72 h"}, "CDK1/cyclin B": {"system": "CDK1/cyclin B", "conditions": "cited from earlier work"}, "KELLY": {"system": "KELLY", "assay": "cells", "format": "cell-based", "conditions": "72 h"}, "MDA-MB-415": {"system": "MDA-MB-415", "assay": "cells", "format": "cell-based", "conditions": "Homo sapiens, MDA-MB-415, 72 h"}, "NCI-H2030": {"system": "NCI-H2030", "assay": "cells", "format": "cell-based", "conditions": "Homo sapiens, NCI-H2030, 72 h"}, "SK-MEL-5": {"system": "SK-MEL-5", "assay": "cells", "format": "cell-based", "conditions": "Homo sapiens, SK-MEL-5, 72 h"}, "HCC-4006": {"system": "HCC-4006", "assay": "cells", "format": "cell-based", "conditions": "Homo sapiens, HCC4006; HCC-4006, 72 h"}, "KYSE150": {"system": "KYSE150", "assay": "cells", "format": "cell-based", "conditions": "Homo sapiens, KYSE-150; KYSE150, 72 h"}, "SNU-761 [5]": {"system": "SNU-761", "assay": "cells", "format": "cell-based", "conditions": "SNU-761, 72 h"}, "NCI-H441": {"system": "NCI-H441", "assay": "cells", "format": "cell-based", "conditions": "Homo sapiens, NCI-H441, 72 h"}, "hs944T": {"system": "hs944T", "assay": "cells", "format": "cell-based", "conditions": "72 h"}, "HBCx-2": {"system": "HBCx-2", "format": "in vivo", "conditions": "HBCx-2, Breast, TNBC, Rb absent; 125 mg/kg bid × 21"}, "HCC-827 [6]": {"system": "HCC-827", "assay": "cells", "format": "cell-based", "conditions": "Homo sapiens, HCC827; HCC-827, 72 h", "remark": "listed apart in the source"}, "MCF-7": {"system": "MCF-7", "assay": "cells", "format": "cell-based", "conditions": "Homo sapiens, MCF7; MCF-7, 72 h"}, "COR-L105 [7]": {"system": "COR-L105", "assay": "cells", "format": "cell-based", "conditions": "Homo sapiens, COR-L105, 72 h", "remark": "listed apart in the source"}, "TE-10": {"system": "TE-10", "assay": "cells", "format": "cell-based", "conditions": "Homo sapiens, TE-10, 72 h"}, "HBCx-16": {"system": "HBCx-16", "format": "in vivo", "conditions": "HBCx-16, Breast, HER2High, Rb present; 125 mg/kg bid × 21"}, "HBCx-15": {"system": "HBCx-15", "format": "in vivo", "conditions": "HBCx-15, Breast, TNBC, Rb absent; 125 mg/kg bid × 21"}, "OE33 [8]": {"system": "OE33", "assay": "cells", "format": "cell-based", "conditions": "Homo sapiens, OE33, 72 h"}, "OE33 [9]": {"system": "OE33", "assay": "cells", "format": "cell-based", "conditions": "Homo sapiens, OE33, 72 h", "remark": "listed apart in the source"}, "TE-11": {"system": "TE-11", "assay": "cells", "format": "cell-based", "conditions": "Homo sapiens, TE-11, 72 h"}, "CHP-212": {"system": "CHP-212", "assay": "cells", "format": "cell-based", "conditions": "Homo sapiens, CHP-212, 72 h"}, "NCI-H23 [10]": {"system": "NCI-H23", "assay": "cells", "format": "cell-based", "conditions": "Homo sapiens, NCI-H23, 72 h"}, "Rb phosphorylation": {"system": "Rb phosphorylation", "assay": "animal or person", "format": "in vivo", "conditions": "Rattus norvegicus, JeKo-1, read-out: ppRb inhibition, range"}, "HBRX1004": {"system": "HBRX1004", "format": "in vivo", "conditions": "HBRX1004, Breast, TNBC, Rb present; 250 mg/kg qd"}, "NCI-H23 [11]": {"system": "NCI-H23", "assay": "cells", "format": "cell-based", "conditions": "Homo sapiens, NCI-H23, 72 h", "remark": "listed apart in the source"}, "SNU-761 [12]": {"system": "SNU-761", "assay": "cells", "format": "cell-based", "conditions": "SNU-761, 72 h", "remark": "listed apart in the source"}, "MELJUSO": {"system": "MELJUSO", "assay": "cells", "format": "cell-based", "conditions": "Homo sapiens, MEL-JUSO, 72 h"}, "JeKo-1 xenograft": {"system": "JeKo-1 xenograft", "format": "in vivo", "conditions": "for tumor response: qd, po"}}, "note": "pIC50: −log10 of the molar value. Like-named read-outs stand apart in the source and are kept apart here.", "data": [{"smiles": "CN(C)C(=O)c1cc2cnc(Nc3ccc(N4CCNCC4)cn3)nc2n1C1CCCC1", "note": "[Ribociclib, 7-cyclopentyl-2-(5-piperazin-1-yl-pyridin-2-ylamino)-7H-pyrrolo[2,3-d]pyrimidine-6-carboxylic acid dimethylamide]", "values": [{"measurement": "effect on cell-cycle progression", "setting": "NCI-H2009", "value": "no effect"}, {"measurement": "pIC50", "setting": "COR-L105 [1]", "value": "< 5.00"}, {"measurement": "pIC50", "setting": "NCI-H1792 [2]", "value": "< 5.00"}, {"measurement": "pIC50", "setting": "TE-5", "value": "< 5.00"}, {"measurement": "T/C", "setting": "HBCx-8", "value": 10}, {"measurement": "pIC50", "setting": "SNU-387", "value": "< 5.00"}, {"measurement": "T/C", "setting": "HBCx-11", "value": 52}, {"measurement": "pIC50", "setting": "NCI-H1792 [3]", "value": 6.21}, {"measurement": "pIC50", "setting": "A-375", "value": "< 5.00"}, {"measurement": "T/C", "setting": "HBRX1600", "value": 28}, {"measurement": "T/C", "setting": "HBCx-3", "value": 45}, {"measurement": "pIC50", "setting": "UACC-62", "value": 5.01}, {"measurement": "pIC50", "setting": "HCC-827 [4]", "value": "< 5.00"}, {"measurement": "pIC50", "setting": "MGH051", "value": "< 5.00"}, {"measurement": "activity against CDK1/cyclin B", "setting": "CDK1/cyclin B", "value": "far less active"}, {"measurement": "pIC50", "setting": "KELLY", "value": 6.52}, {"measurement": "pIC50", "setting": "MDA-MB-415", "value": "< 5.00"}, {"measurement": "pIC50", "setting": "NCI-H2030", "value": "< 5.00"}, {"measurement": "pIC50", "setting": "SK-MEL-5", "value": 5.68}, {"measurement": "pIC50", "setting": "HCC-4006", "value": 6.06}, {"measurement": "pIC50", "setting": "KYSE150", "value": 5.17}, {"measurement": "pIC50", "setting": "SNU-761 [5]", "value": "< 5.00"}, {"measurement": "pIC50", "setting": "NCI-H441", "value": "< 5.00"}, {"measurement": "pIC50", "setting": "hs944T", "value": 5.79}, {"measurement": "T/C", "setting": "HBCx-2", "value": 102}, {"measurement": "pIC50", "setting": "HCC-827 [6]", "value": 5.21}, {"measurement": "pIC50", "setting": "MCF-7", "value": 6.74}, {"measurement": "pIC50", "setting": "COR-L105 [7]", "value": 5.72}, {"measurement": "pIC50", "setting": "TE-10", "value": 6.00}, {"measurement": "T/C", "setting": "HBCx-16", "value": 71}, {"measurement": "T/C", "setting": "HBCx-15", "value": 108}, {"measurement": "pIC50", "setting": "OE33 [8]", "value": 6.20}, {"measurement": "pIC50", "setting": "OE33 [9]", "value": "< 5.00"}, {"measurement": "pIC50", "setting": "TE-11", "value": 5.36}, {"measurement": "pIC50", "setting": "CHP-212", "value": 6.55}, {"measurement": "pIC50", "setting": "NCI-H23 [10]", "value": "< 5.00"}, {"measurement": "inhibition at 75 mg/kg", "setting": "Rb phosphorylation", "value": "75 to 90", "unit": "%"}, {"measurement": "inhibition at 150 mg/kg", "setting": "Rb phosphorylation", "value": "97 to 100", "unit": "%"}, {"measurement": "T/C", "setting": "HBRX1004", "value": 10}, {"measurement": "pIC50", "setting": "NCI-H23 [11]", "value": "< 5.00"}, {"measurement": "pIC50", "setting": "SNU-761 [12]", "value": 6.17}, {"measurement": "pIC50", "setting": "MELJUSO", "value": 6.05}, {"measurement": "tumor response", "setting": "JeKo-1 xenograft; 75 mg/kg", "value": "complete tumor regression"}, {"measurement": "tumor response", "setting": "JeKo-1 xenograft; 150 mg/kg", "value": "complete tumor regression"}, {"measurement": "tumor growth inhibition", "setting": "JeKo-1 xenograft; rat, in vivo", "value": 56, "unit": "%"}]}]}
